Laboratory results published in ChEMBL document CHEMBL5252547, “A review of salvinorin analogs and their kappa-opioid receptor activity” (Bioorg Med Chem Lett, 2018).

Target: Kappa-type opioid receptor (Homo sapiens, UniProt P41145)
Assay: Inhibition of human kappa opioid receptor assessed as inhibition constant

Sequence of Kappa-type opioid receptor (P41145 whole entry): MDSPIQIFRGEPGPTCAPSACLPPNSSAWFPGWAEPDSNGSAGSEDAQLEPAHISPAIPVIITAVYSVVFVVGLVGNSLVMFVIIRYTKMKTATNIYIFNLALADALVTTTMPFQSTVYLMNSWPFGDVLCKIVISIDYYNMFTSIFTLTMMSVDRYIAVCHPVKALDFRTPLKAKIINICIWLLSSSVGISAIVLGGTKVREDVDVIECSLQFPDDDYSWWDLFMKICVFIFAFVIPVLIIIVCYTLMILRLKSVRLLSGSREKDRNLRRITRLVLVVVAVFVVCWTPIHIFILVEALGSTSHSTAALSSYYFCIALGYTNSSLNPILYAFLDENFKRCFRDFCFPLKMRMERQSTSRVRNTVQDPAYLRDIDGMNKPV

`COC(=O)[C@@H]1C[C@H](OC(C)=O)C(=O)[C@H]2[C@@]1(C)CC[C@H]1C(=O)O[C@H](C(=O)Nc3ccccc3)C[C@]21C` showed a Ki of 1000 nM.
